As a reminder, the IC50 is the concentration at which inhibition is half-maximal. A high value points to lower potency.

In test [1] the test system is E. coli RNase P RNA, M1 RNA. As to the kind of experiment: Initial screening for inhibition of RNase P activity (normalised cleavage of pATSerUG at maximum compound concentration). It counts as biochemical. The note with it: normalised cleavage (cleavage with compound / without compound) at maximum compound concentration.
Another test concerns H. influenzae ATCC 49247. As to the kind of experiment: MIC, H. influenzae ATCC 49247. It counts as cell-based. To be noted: Haemophilus influenzae, ATCC49247; Table XIV B. Gram-negative bacteria.
Another test relates to A. baumannii ATCC 17978. As to the kind of experiment: MIC, A. baumannii ATCC 17978. Type of test: cell-based. The note with it: Acinetobacter baumannii, ATCC17978; Table XIV B. Gram-negative bacteria.
Test [2] concerns P. aeruginosa NTUH974 (MDR). In words: MIC, P. aeruginosa NTUH974 (MDR). It counts as cell-based. The note with it: Pseudomonas aeruginosa; Table XIV B. Gram-negative bacteria; read-out: P. aeruginosa NTUH974 (MDR) MIC.
Test [3] deals with Staphylococcus aureus subsp. aureus (ATCC29213). As to the kind of experiment: MIC, broth microdilution (CLSI), Staphylococcus aureus ATCC29213. To be noted: Staphylococcus aureus, read-out: S. aureus ATCC 29213 MIC. It counts as cell-based.
A further test concerns S. pneumoniae ATCC 49619. In words: MIC, S. pneumoniae ATCC 49619. It counts as cell-based. The note with it: Streptococcus pneumoniae, ATCC49619; Table XIV A. Gram-positive bacteria.
In a further test the test system is E. faecium ATCC 700221. In words: MIC, E. faecium ATCC 700221. It counts as cell-based. To be noted: Enterococcus faecium, ATCC700221; Table XIV A. Gram-positive bacteria; read-out: E. faecium ATCC 700221 MIC.
Test [4] deals with Escherichia coli (ATCC25922). In words: MIC, broth microdilution (CLSI), Escherichia coli. To be noted: Escherichia coli. On the technique in general: In broth dilution the organism is exposed to a series of concentrations in liquid medium.
In test [5] the test system is Pseudomonas aeruginosa (ATCC27853). As to the kind of experiment: MIC, broth microdilution (CLSI), Pseudomonas aeruginosa. It counts as cell-based. To be noted: ATCC27853, Table XIV B. Gram-negative bacteria, read-out: P. aeruginosa ATCC 27853 MIC.
For the next test, the system named is K. pneumoniae ATCC 43816. In words: MIC, K. pneumoniae ATCC 43816. Type of test: cell-based. To be noted: Klebsiella pneumoniae, ATCC43816; Table XIV B. Gram-negative bacteria.
Test [6] concerns E. coli JW5503 (efflux defective). As to the kind of experiment: MIC, E. coli JW5503 (efflux defective). Type of test: cell-based. The note with it: Escherichia coli, read-out: E. coli JW5503 (efflux defective) MIC.
Test [7] concerns E. coli RNase P RNA, M1 RNA. In words: Inhibition of bacterial RNase P activity, IC50 determination (cleavage of pATSerUG by M1 RNA). It counts as biochemical. To be noted: NI: No inhibition.
For test [8], the system named is Staphylococcus aureus (ATCC25923). As to the kind of experiment: MIC, broth microdilution (CLSI), Staphylococcus aureus ATCC25923. The note with it: Staphylococcus aureus, ATCC25923, read-out: S. aureus ATCC 25923 MIC.
Description: Initial minimal inhibitory concentration (MIC) tests were made on two bacterial strains: • Escherichia coli (ATCC25922) • Staphylococcus aureus (ATCC25923).
MIC values were determined using the standard broth microdilution procedure based on the guidelines by the Clinical and Laboratory Standards Institute (CLSI). Briefly, the compounds were dissolved in DMSO to 10 mM. They were diluted in cation-adjusted Mueller-Hinton broth (CAMHB) to four times the highest concentration tested. A serial two-fold dilution in CAMHB was done in microdilution plates. The inoculum of bacterial strain to be tested was prepared by making a suspension of colonies from an 18 to 24 hours old plate in CAMHB. The inoculum was diluted so that, after inoculation, each well contained approximately 5×10^5 CFU/mL. To a volume of 50 μl compound in CA 3 an equal volume of inoculum was added. The tray was sealed in a plastic bag and incubated at 35° C. for 16 to 20 hours. To aid in the detection of growth the dye resazurin was added to a final concentration 0.001% and incubated at room temperature for 1 h. Reduction of resazurin, and therefore bacterial growth, was seen as a change from blue to pink.
For test [9], the system named is S. aureus MRSA ATCC 33591. As to the kind of experiment: MIC, S. aureus MRSA ATCC 33591. Type of test: cell-based. To be noted: Staphylococcus aureus; Table XIV A. Gram-positive bacteria; read-out: S. aureus MRSA ATCC 33591 MIC.
The test system of test [10] is Enterococcus faecalis (ATCC29212). As to the kind of experiment: MIC, broth microdilution (CLSI), Enterococcus faecalis. Type of test: cell-based. To be noted: ATCC29212, Table XIV A. Gram-positive bacteria, read-out: E. faecalis ATCC 29212 MIC.
For test [11], the system named is N. gonorrhoeae ATCC 700825. As to the kind of experiment: MIC, N. gonorrhoeae ATCC 700825. Type of test: cell-based. To be noted: Neisseria gonorrhoeae, ATCC700825; Table XIV B. Gram-negative bacteria.
Where [12] appears, read: ATCC29213, Table XIV A. Gram-positive bacteria.
Setting [13] is: ATCC25922, read-out: E. coli ATCC 25922 MIC, Table XIII.
Setting [14] is: ATCC25922, read-out: E. coli ATCC 25922 MIC, Table XIV B. Gram-negative bacteria.

The structures appear in SMILES notation. Where a name gives a salt, the structure may show the parent alone. Read-outs that look alike come from different tables or passages of the source.

`Cl.c1c[nH]c(CNCCc2c[nH]c3ccccc23)c1` [Compound 14, N-((1H-pyrrol-2-yl)methyl)-2-(1H-indol-3-yl)ethan-1-amine hydrochloride salt]: in test [1], the “Initial screening of RNase P Inhibition” value turned out to be 0.78.
As for `COc1ccc(CNCCc2c[nH]c3ccccc23)cc1.Cl` [Compound 11, 2-(1H-indol-3-yl)-N-(4-methoxybenzyl)ethan-1-amine hydrochloride salt], the “Initial screening of RNase P Inhibition” value in [1] amounted to 0.72.
Same read-out and setting: to `Cl.Fc1ccc(CN(CCc2c[nH]c3ccccc23)Cc2ncc[nH]2)cc1` [Compound 10, N-((1H-imidazol-2-yl)methyl)-N-(4-fluorobenzyl)-2-(1H-indol-3-yl)ethan-1-amine hydrochloride salt] belongs 0.95; to `Cl.c1ccc2c(CCNCc3c[nH]cn3)c[nH]c2c1` [Compound 9, N-((1H-imidazol-4-yl)methyl)-2-(1H-indol-3-yl)ethan-1-amine hydrochloride salt], 0.91.
Same read-out and setting: with `Brc1cccc(CNCCc2c[nH]c3ccccc23)c1.Cl` [Compound 13, N-(3-bromobenzyl)-2-(1H-indol-3-yl)ethan-1-amine hydrochloride salt] the figure was 0.97.
Same read-out and setting: to `Cl.c1cc(CNCCc2c[nH]c3ccccc23)nc(N2CCCCC2)c1` [Compound 17, 2-(1H-indol-3-yl)-N-((6-(piperidin-1-yl)pyridin-2-yl)methyl)ethan-1-amine hydrochloride salt] belongs 0.94; to `c1ccc2c(CCNCC3CCNCC3)c[nH]c2c1` [Compound 18, 2-(1H-indol-3-yl)-N-(piperidin-4-ylmethyl)ethan-1-amine hydrochloride salt], 1.05.
Turning to `Cl.c1ccc2c(CCNCc3cncs3)c[nH]c2c1` [Compound 16, 2-(1H-indol-3-yl)-N-(thiazol-5-ylmethyl) ethan-1-amine hydrochloride salt], the “Initial screening of RNase P Inhibition” value in test [1] is listed as 0.88.
Take `Cc1cccc(C(CCNC2CCNCC2)c2cn(CC3CCCCC3)c3ccc(Br)cc23)c1.Cl` (stereo not drawn) [Compound 163, N-(3-(5-bromo-1-(cyclohexylmethyl)-1H-indol-3-yl)-3-(m-tolyl)propyl)piperidin-4-amine hydrochloride salt]: the MIC with H. influenzae ATCC 49247 worked out at 4 µg/mL; against A. baumannii ATCC 17978, 4 µg/mL; in test [2], 16 µg/mL; in test [3] (ATCC29213, Table XIII), 2 µg/mL; in test [3] (setting [12]), 4 µg/mL; against S. pneumoniae ATCC 49619, 8 µg/mL. In addition, the MIC in the test on E. faecium ATCC 700221 was 2 µg/mL; in [4] (setting [13]) it was 2 µg/mL; in test [4] (setting [14]), 4 µg/mL; in [5], 16 µg/mL; against K. pneumoniae ATCC 43816, 4 µg/mL; in test [6], 4 µg/mL. The MIC amounted to 1 µg/mL in [8], 4 µg/mL in [9], 2 µg/mL in [10] and 2 µg/mL in test [11]. For the same compound, the IC50 in test [7] was 8.5 µM.
Take `Cl.Clc1ccc(CNCCc2c[nH]c3ccccc23)c(Cl)n1` [Compound 8, N-((2,6-dichloropyridin-3-yl)methyl)-2-(1H-indol-3-yl)ethan-1-amine hydrochloride salt]: the “Initial screening of RNase P Inhibition” value in test [1] was found to be 0.96.
In the case of `Cc1cccc(C(CC(=O)NCCC2CCNCC2)c2cn(CC3CCCCC3)c3ccc(Br)cc23)c1.Cl` (stereo not drawn) [Compound 120, 3-(5-bromo-1-(cyclohexylmethyl)-1H-indol-3-yl)-N-(2-(piperidin-4-yl)ethyl)-3-(m-tolyl)propanamide hydrochloride salt], the MIC stood at 16 µg/mL with H. influenzae ATCC 49247; 64 µg/mL against A. baumannii ATCC 17978; 64 µg/mL in [2]; 2 µg/mL in test [3] (setting [12]); 16 µg/mL in the test on S. pneumoniae ATCC 49619; 4 µg/mL in the test on E. faecium ATCC 700221. Also, the MIC is above 512 µg/mL in [4] (setting [13]); 32 µg/mL in test [4] (setting [14]); 64 µg/mL in test [5]; 64 µg/mL with K. pneumoniae ATCC 43816; 16 µg/mL in test [6]; 2 µg/mL in [8]. In addition, the MIC in test [9] was 32 µg/mL; in test [10] it was 4 µg/mL; in [11], 2 µg/mL. Further, the IC50 in [7] came out at 11 µM.

The values above are taken from patent US20210246115A1 (Bioimics AB, priority 2017, published 2021).
